Laboratory results taken from patent US5039528A, “EAA antagonists as anti-emetic drugs” (priority 1989, dated 1991).
Read-outs that look alike come from different tables or passages of the source.

Tests used:
[1] = test system: NMDA receptors; experiment: Chick retina assay: protection against excitotoxic action of NMDA; type: cell-based
Source text: (§1) Antagonist potencies were established in a chick retina assay which has
(§2) (NMDA, KA and Quis) for excitotoxic properties and EAA antagonists for
(§3) potency in protecting the retina against the excitotoxic action of such
(§4) agonists. The concentration of antagonist required to totally prevent the
(§5) toxic action of an agonist was used to compare antagonists for potency.
(§6) For purposes of illustration, the data were normalized by assigning a
(§7) EAA antagonist properties have been described in each category. Antagonis
(§8) potencies were established in a chick retina assay which has been used by
(§9) Quis) for excitotoxic properties and EAA antagonists for potency in
(§10) protecting the retina against the excitotoxic action of such agonists.
(§11) concentration of antagonist required to totally prevent the toxic action
(§12) of an agonist was used to compare antagonists for potency. For purposes o
(§13) to kynurenic acid vs KA (see table 1) and all other values were adjusted

[2] = test system: emesis associated with cancer chemotherapy; conditions: cited from earlier work; for side effects: high doses; for anti-emetic effect in cancer chemotherapy: in vivo
[3] = test system: Quis receptors; experiment: Chick retina assay: protection against excitotoxic action of Quis; type: cell-based
Source text: as §1, §2, §3, §4, §5, §6, §7, §8, §9, §10, §11, §12, §13

[4] = test system: KA receptors; experiment: Chick retina assay: protection against excitotoxic action of KA; type: cell-based
Source text: as §1, §2, §3, §4, §5, §6, §7, §8, §9, §10, §11, §12, §13

[5] = test system: EAA receptors (NMDA, KA, Quis); conditions: cited from earlier work
[6] = cited from earlier work; for BBB penetrability: Table 1; for penetration of blood brain barriers: statement in text
[7] = test system: neurons; conditions: cited from earlier work
[8] = test system: humans; conditions: humans; cited from earlier work
[9] = Table 2, normalized to kynurenic acid vs KA = 1
[10] = Table 1, normalized to kynurenic acid vs KA = 1

CCN(CC)C(C)CN1c2ccccc2Sc2ccccc21 (stereo not drawn) [ethopropazine]
EAA antagonist potency vs NMDA [1, 9]: 40

O=C(CCCN1CCC(O)(c2ccc(Cl)cc2)CC1)c1ccc(F)cc1 [haloperidol]
side effects [2]: severe side effects such as abnormal motor movements, muscle rigidity, and tremors
anti-emetic effect in cancer chemotherapy [2]: only weakly active as anti-emetics

NC(CCCC(=O)O)C(=O)O (stereo not drawn) [α-amino adipate]
EAA antagonist potency vs NMDA [1, 10]: 5

C=CCC1(C(C)CCC)C(=O)N=C(S)NC1=O (stereo not drawn) [thiamylal]
EAA antagonist potency vs NMDA [1, 9]: 13
EAA antagonist potency vs Quis [3, 9]: 2
EAA antagonist potency vs KA [4, 9]: 3

O=C(O)c1cc(O)c2ccc(Cl)cc2n1 [7-Cl-kynurenate, 7-chloro-kynurenic acid]
EAA receptor subtype order of blockade [5]: NMDA>KA>Quis
BBB penetrability [6]: very low
penetration of blood brain barriers [6]: do not penetrate blood-brain barriers
EAA antagonist potency vs NMDA [1, 10]: 10
EAA antagonist potency vs Quis [3, 10]: 3
EAA antagonist potency vs KA [4, 10]: 4

OC(CCN1CCCC1)(c1ccccc1)C1CCCCC1 (stereo not drawn) [procyclidine]
reduction of the neurotoxicity of NMDA antagonists that penetrate the BBB ([7]; Ser. No. 424,548): effective in reducing the neurotoxicity
EAA antagonist potency vs NMDA [1, 9]: 67

CN1CC[C@@]23CCCC[C@@H]2[C@@H]1Cc1ccc(O)cc13 [dextrorphan]
EAA antagonist potency vs NMDA [1, 9]: 40

OC(CCN1CCCCC1)(c1ccccc1)C1CCCCC1 (stereo not drawn) [trihexyphenidyl]
reduction of the neurotoxicity of NMDA antagonists that penetrate the BBB ([7]; Ser. No. 424,548): effective in reducing the neurotoxicity

CC(C(O)c1ccc(O)cc1)N1CCC(Cc2ccccc2)CC1 (stereo not drawn) [ifenprodil]
EAA antagonist potency vs NMDA [1, 10]: 100

N[C@H](CCCP(=O)(O)O)C(=O)O [D-AP5, D-2-amino-5-phosphonopentanoate]
EAA antagonist potency vs NMDA [1, 10]: 40

CN1[C@@H]2CC[C@H]1C[C@@H](OC(c1ccccc1)c1ccccc1)C2 [benztropine]
reduction of the neurotoxicity of NMDA antagonists that penetrate the BBB ([7]; in vivo): effective in reducing the neurotoxicity

COc1ccc2c(c1)[C@]13CCCC[C@@H]1[C@H](C2)N(C)CC3 [dextromethorphan]
EAA antagonist potency vs NMDA [1, 9]: 20

OC(CN1CCC(Cc2ccc(F)cc2)CC1)c1ccc(Cl)cc1 (stereo not drawn) [SL 82,0715]
EAA antagonist potency vs NMDA [1, 10]: 50

CCNC1(c2cccs2)CCCCC1=O (racemic) [tilletamine]
penetration of blood brain barriers [6]: permeate easily through BBB's
psychotic effects [8]: psychotic effects
EAA antagonist potency vs NMDA [1, 9]: 200

OC(CCN1CCCCC1)(c1ccccc1)C1CC2C=CC1C2 (stereo not drawn) [biperiden]
reduction of the neurotoxicity of NMDA antagonists that penetrate the BBB ([7]; Ser. No. 424,548): effective in reducing the neurotoxicity

CNC1(c2ccccc2Cl)CCCCC1=O (stereo not drawn) [ketamine]
psychotic effects [8]: psychotic effects

CN1CCN(CCCN2c3ccccc3Sc3ccc(Cl)cc32)CC1 [compazine]
side effects [2]: severe side effects such as abnormal motor movements, muscle rigidity, and tremors
anti-emetic effect in cancer chemotherapy [2]: only weakly active as anti-emetics

O=c1[nH]c2cc([N+](=O)[O-])c([N+](=O)[O-])cc2[nH]c1=O [DNQX, 6,7-dinitro-quinoxaline-2,3-dion]
block of non-NMDA vs NMDA receptors [5]: block non-NMDA receptors substantially more powerfully than NMDA receptors
potency compared with kynurenic or 7-chloro-kynurenic acid [5]: significantly more powerful
BBB penetrability [6]: very low
penetration of blood brain barriers [6]: do not penetrate blood-brain barriers
EAA antagonist potency vs NMDA [1, 10]: 10
EAA antagonist potency vs Quis [3, 10]: 40
EAA antagonist potency vs KA [4, 10]: 20

CCCC(C)C1(CC)C(=O)NC(=S)NC1=O (stereo not drawn) [thiopental]
EAA antagonist potency vs NMDA [1, 9]: 7
EAA antagonist potency vs Quis [3, 9]: 2
EAA antagonist potency vs KA [4, 9]: 2

N[C@H](CCCCCP(=O)(O)O)C(=O)O [D-AP7, D-2-amino-7-phosphonoheptanoate]
BBB penetrability [6]: very low
penetration of blood brain barriers [6]: do not readily penetrate blood brain barriers
EAA antagonist potency vs NMDA [1, 10]: 13
